Measurements reported in patent publication US20260165323A1, “USE OF STROBILURIN TYPE COMPOUNDS FOR COMBATING PHYTOPATHOGENIC FUNGI CONTAINING AN AMINO ACID SUBSTITUTION F129L IN THE MITOCHONDRIAL CYTOCHROME B PROTEIN CONFERRING RESISTANCE TO QO […]” (priority 2022, published 2026).

Legend:
Type in all cases: in vivo
Puccinia recondita [1] = experiment: Use Example 3: curative control of brown rust on wheat (PUCCRT K4); conditions: % diseased leaf area
Protocol: (§1) The compound was dissolved in a mixture of acetone and/or dimethylsulfoxide and the wetting agent/emulsifier Wettol, which is based on ethoxylated alkylphenoles, in a ratio (volume) solvent-emulsifier of 99 to 1 to give a total volume of 5 ml. Subsequently, water was added to total volume of 100 ml. This stock solution was then diluted with the described solvent-emulsifier-water mixture to the final concentration given in the tables below.
Use Example 3. Curative Control of Brown Rust on Wheat Caused by Puccinia recondita (PUCCRT K4)
The first two developed leaves of potted wheat seedling were dusted with spores of Puccinia recondita. To ensure the success the artificial inoculation, the plants were transferred to a humid chamber without light and a relative humidity of 95 to 99% and 20 to 24° C. for 24 h. The next 3 days the plants were cultivated in a greenhouse chamber at 20 to 24° C. and a relative humidity between 65 and 70%. Then the plants were sprayed to run-off with previously described spray solution, containing the concentration of active ingredient or their mixture as described below. The plants were allowed to air-dry. Then the trial plants were cultivated for 5 to 7 days in a greenhouse chamber at 20 to 24° C. and a relative humidity between 65 and 70%. The extent of fungal attack on the leaves was visually assessed as % diseased leaf area, the disease level of untreated controls was usually between 80 and 100%.

[2] = system: Phakopsora pachyrhizi containing the amino acid substitution F129L in the mitochondrial cytochrome b protein; experiment: Use Example 2: protective control of soybean rust on soybeans (PHAKPA P6); conditions: inoculated six days after spraying, % diseased leaf area
Protocol: as §1
Use Example 2. Protective Control of Soybean Rust on Soybeans Caused by Phakopsora Pachyrhizi (PHAKPA P6)
(§2) Leaves of potted soybean seedlings were sprayed to run-off with the previously described spray solution, containing the concentration of active ingredient as described below. The plants were allowed to air-dry. The trial plants were cultivated for six days in a greenhouse chamber at 23-27° C. and a relative humidity between 60 and 80%. Then the plants were inoculated with spores of Phakopsora pachyrhizi. The strain used contains the amino acid substitution F129L in the mitochondrial cytochrome b protein conferring resistance to Qo inhibitors. To ensure the success the artificial inoculation, the plants were transferred to a humid chamber with a relative humidity of about 95% and 23 to 27° C. for 24 hr. The trial plants were cultivated for up to 14 days in a greenhouse chamber at 23 to 27° C. and a relative humidity between 60 and 80%. The extent of fungal attack on the leaves was visually assessed as % diseased leaf area, the disease level of untreated controls was usually higher than 85%.

Puccinia recondita [3] = experiment: Use Example 4: preventative control of brown rust on wheat (PUCCRT P7); conditions: inoculated seven days after spraying, % diseased leaf area
Protocol: as §1
Use Example 4. Preventative Control of Brown Rust on Wheat Caused by Puccinia recondita (PUCCRT P7)
The first two developed leaves of potted wheat seedling were sprayed to run-off with previously described spray solution, containing the concentration of active ingredient or their mixture as described below. Seven days later the plants were dusted with spores of Puccinia recondita. To ensure the success of the artificial inoculation, the plants were transferred to a humid chamber without light and a relative humidity of 95 to 99% and 20 to 24° C. for 24 h. Then the trial plants were cultivated for 9 to 11 days in a greenhouse chamber at 20 to 24° C. and a relative humidity between 65 and 70%. The extent of fungal attack on the leaves was visually assessed as % diseased leaf area, the disease level of untreated controls was usually between 80 and 100%.

[4] = system: Phakopsora pachyrhizi containing the amino acid substitution F129L in the mitochondrial cytochrome b protein; experiment: Use Example 1: protective control of soybean rust on soybeans (PHAKPA P2); conditions: inoculated 2 days after spraying, % diseased leaf area
Protocol: as §1
Use Example 1. Protective Control of Soybean Rust on Soybeans Caused by Phakopsora pachyrhizi (PHAKPA P2)
as §2, with “active ingredient or their mixture as described” for “active ingredient as described”, “cultivated for 2 days in” for “cultivated for six days in”, “95% and 20 to 24°” for “95% and 23 to 27°”, “20 to 24° C. for” for “23 to 27° C. for”

SMILES	% PUCCRT Disease level K4 at 4 ppm (Puccinia recondita [1]) [%]	% PUCCRT Disease level K4 at 16 ppm (Puccinia recondita [1]) [%]	% PHAKPA (F129L) Disease level P6 at 4 ppm [2] [%]	% PHAKPA (F129L) Disease level P6 at 16 ppm [2] [%]	% PUCCRT Disease level P7 at 4 ppm (Puccinia recondita [3]) [%]	% PUCCRT Disease level P7 at 16 ppm (Puccinia recondita [3]) [%]	% PHAKPA (F129L) Disease level P2 at 4 ppm [4] [%]	% PHAKPA (F129L) Disease level P2 at 16 ppm [4] [%]
CO/C=C(/C(=O)OC)c1cccc(F)c1CO/N=C(\COC)c1c(F)cc(F)cc1F [compound 125]	68	7						
CO/C=C(/C(=O)OC)c1cccc(Cl)c1CO/N=C(\COC)c1cc(Cl)ccc1F [compound 105]	42	5	13	0	44	4	18	2
CNC(=O)/C(=N/OC)c1cccc(Cl)c1CO/N=C(\COC)c1cc(F)c(F)c(F)c1 [compound 74]	37	3	1	0	12	3	12	2
CO/C=C(/C(=O)OC)c1cccc(Cl)c1CO/N=C(\COC)c1ccccc1C [compound 123]	72	21	38	7	77	33	41	2
CCOC/C(=N\OCc1c(Cl)cccc1/C(=N\OC)C(=O)OC)c1ccccc1F [compound 20]	80	77	63	63	70	57	60	43
CO/C=C(/C(=O)OC)c1cccc(Cl)c1CO/N=C(\COC)c1cccc(C#N)c1 [compound 116]	5	0	48	11	15	3	31	3
CNC(=O)/C(=N/OC)c1cccc(Cl)c1CO/N=C(\COC)c1ccccc1Cl [compound 50]	75	72	87	36	70	33	92	32
CCOC/C(=N\OCc1c(Br)cccc1/C(=C\OC)C(=O)OC)c1ccc(F)cc1 [compound 66]	62	8	13	1	27	4	11	1
COC/C(=N\OCc1c(Cl)cccc1/C(=N\OC)C(=O)OC)c1c(F)cc(F)cc1F [compound 28]	75	77	85	27	57	4	67	13
CCOC/C(=N\OCc1c(Cl)cccc1/C(=N\OC)C(=O)NC)c1ccccc1Cl [compound 51]	72	68			75	53		
CCOC/C(=N\OCc1c(Cl)cccc1/C(=N\OC)C(=O)OC)c1cccc(F)c1 [compound 26]	82	82			62	21		
CNC(=O)/C(=N/OC)c1cccc(Cl)c1CO/N=C(\COC)c1cccc(C)c1 [compound 127]	58	1	18	4			21	0
CCOC/C(=N\OCc1c(Cl)cccc1/C(=N\OC)C(=O)OC)c1ccc(F)cc1 [compound 24]	83	82			68	48		
CO/C=C(/C(=O)OC)c1cccc(Cl)c1CO/N=C(\COC)c1cccc(C)c1 [compound 128]	20	1	4	1			4	0
CNC(=O)/C(=N/OC)c1cccc(Cl)c1CO/N=C(\COC)c1ccccc1C [compound 122]			76	30	45	20	82	20
COC/C(=N\OCc1c(Cl)cccc1/C(=N\OC)C(=O)OC)c1c(F)cc(Cl)cc1F [compound 89]			45	13	36	25	53	17
COC/C(=N\OCc1c(Cl)cccc1/C(=N\OC)C(=O)OC)c1c(F)ccc(F)c1F [compound 111]			42	15	30	17	39	5
COC/C(=N\OCc1c(Cl)cccc1/C(=N\OC)C(=O)OC)c1cccc(OC)c1 [compound 120]			81	45	22	2	67	11
COC/C(=N\OCc1c(Cl)cccc1/C(=N\OC)C(=O)OC)c1ccc(F)c(F)c1 [compound 90]			42	13	32	10	11	0
